Earlier results as cited in US6800300B1, “Method for treating autoimmune and alloimmune diseases” (Vasogen Ireland Limited, priority 2000, dated 2004).
Counter-ions that a name gives are not always drawn.

Experiments:
[1] = system: TNF-α production by lymphocytes and macrophages
serum TNF = conditions: endotoxin-induced shock rat model

Structure (SMILES)	production of TNF-α [1]	serum TNF concentrations (serum TNF)
COc1ccc(C2CNC(=O)C2)cc1OC1CCCC1 (centres unmarked) [4-(3-cyclopentyloxy4-methoxyphenyl)-2-pyrrolidone]	down-regulate the production of TNF-α	
C[C@H](Cc1ccccc1)Nc1ncnc2c1ncn2[C@@H]1O[C@H](CO)[C@@H](O)[C@H]1O [R-phenylisopropyladenosine (R-PIA), R-phenylisopropyladenosine]		reduce serum TNF concentrations
CC(=O)O[C@H]1C[C@@]2(C)[C@@H](C[C@@H](O)[C@H]3[C@@]4(C)CC[C@@H](O)[C@@H](C)[C@@H]4CC[C@@]32C)/C1=C(\CCC=C(C)C)C(=O)O [fusidic acid (sodiun salt), fusidic acid]		reduce serum TNF concentrations
N=C(N)c1ccc(OCCCCCOc2ccc(C(=N)N)cc2)cc1 [pentamidine (isethionate), pentamidine]		reduce serum TNF concentrations
CC(=O)CCCCn1c(=O)c2c(ncn2C)n(C)c1=O [pentoxifylline]		reduce serum TNF concentrations
